From US8835420B2, “Azaindole derivatives” (Takeda Pharmaceutical Company Limited, priority 2012, dated 2014) come the findings set out here.

pIC50: −log10 of the molar value. Some results are limits rather than exact numbers.

For the assay, the target named is T1, PI3Kδ (recombinant GST-tagged PIK3CD co-expressed with PIK3R1, p85α) (Homo sapiens, UniProt O00329).
T1 construct: The protein is full length and co-expressed with untagged PIK3R1; GST; purchased Invitrogen PV5274
T1 sequence (O00329 whole entry): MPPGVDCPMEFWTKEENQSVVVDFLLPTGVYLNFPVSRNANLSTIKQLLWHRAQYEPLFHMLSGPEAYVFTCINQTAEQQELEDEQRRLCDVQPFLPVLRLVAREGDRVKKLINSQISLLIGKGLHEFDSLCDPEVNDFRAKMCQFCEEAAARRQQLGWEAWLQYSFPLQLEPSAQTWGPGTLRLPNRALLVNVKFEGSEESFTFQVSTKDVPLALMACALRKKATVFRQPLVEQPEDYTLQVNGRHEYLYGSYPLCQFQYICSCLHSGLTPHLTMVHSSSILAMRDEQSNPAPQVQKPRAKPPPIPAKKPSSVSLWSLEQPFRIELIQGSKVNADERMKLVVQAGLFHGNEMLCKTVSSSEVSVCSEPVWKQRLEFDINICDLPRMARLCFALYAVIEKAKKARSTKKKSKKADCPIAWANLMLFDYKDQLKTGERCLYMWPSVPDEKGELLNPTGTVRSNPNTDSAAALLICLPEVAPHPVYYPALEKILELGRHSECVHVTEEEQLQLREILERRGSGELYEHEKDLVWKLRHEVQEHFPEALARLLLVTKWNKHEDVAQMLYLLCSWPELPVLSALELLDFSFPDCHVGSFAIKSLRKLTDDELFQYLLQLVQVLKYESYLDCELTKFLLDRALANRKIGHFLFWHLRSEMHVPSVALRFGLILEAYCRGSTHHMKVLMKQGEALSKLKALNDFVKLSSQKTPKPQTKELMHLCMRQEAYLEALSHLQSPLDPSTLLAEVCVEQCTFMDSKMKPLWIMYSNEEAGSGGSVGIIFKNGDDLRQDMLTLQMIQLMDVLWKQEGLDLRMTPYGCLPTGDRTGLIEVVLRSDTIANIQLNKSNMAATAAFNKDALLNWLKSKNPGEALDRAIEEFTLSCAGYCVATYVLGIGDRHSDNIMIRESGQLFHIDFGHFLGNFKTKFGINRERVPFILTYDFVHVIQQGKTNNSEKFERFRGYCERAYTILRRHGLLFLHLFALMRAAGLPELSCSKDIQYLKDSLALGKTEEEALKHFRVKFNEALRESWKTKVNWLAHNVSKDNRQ
T1 sequence (P27986 whole entry partner): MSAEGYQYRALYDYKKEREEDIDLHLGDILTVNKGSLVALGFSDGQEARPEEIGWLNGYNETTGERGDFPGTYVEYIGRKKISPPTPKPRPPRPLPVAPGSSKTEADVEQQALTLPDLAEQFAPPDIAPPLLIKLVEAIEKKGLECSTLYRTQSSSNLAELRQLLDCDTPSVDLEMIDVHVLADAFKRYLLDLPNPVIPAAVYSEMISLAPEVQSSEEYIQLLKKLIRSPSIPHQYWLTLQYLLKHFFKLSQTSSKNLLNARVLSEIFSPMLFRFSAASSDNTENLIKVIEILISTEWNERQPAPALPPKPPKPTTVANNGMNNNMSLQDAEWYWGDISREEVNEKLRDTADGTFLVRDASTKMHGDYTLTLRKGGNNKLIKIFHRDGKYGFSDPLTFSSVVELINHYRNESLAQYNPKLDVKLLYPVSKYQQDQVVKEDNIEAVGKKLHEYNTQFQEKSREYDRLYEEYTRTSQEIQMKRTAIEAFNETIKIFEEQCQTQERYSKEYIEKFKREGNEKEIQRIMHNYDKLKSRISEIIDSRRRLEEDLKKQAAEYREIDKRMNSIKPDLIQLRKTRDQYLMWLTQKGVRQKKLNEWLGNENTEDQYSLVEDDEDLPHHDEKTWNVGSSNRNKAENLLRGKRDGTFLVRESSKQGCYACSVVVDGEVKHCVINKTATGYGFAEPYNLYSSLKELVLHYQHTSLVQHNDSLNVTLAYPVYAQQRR
The experiment in a line: PI3Kδ inhibition, modified PIK3CD Adapta TR-FRET kinase assay. As to conditions: 2 μM ATP, 50 μM PIP2, 1 hour at room temperature, pIC50 = -log(IC50 in M). Format: biochemical. The procedure:
The activity of compounds as PI3Kδ inhibitors may be determined by a variety of methods, including in vitro and in vivo methods. The following in vitro assay measures a test compound's ability to inhibit PI3Kδ-mediated phosphorylation of PIP2 and ATP.
Recombinant GST-tagged PIK3CD is purchased from Invitrogen (Part Number: PV5274). The protein is full length and co-expressed with untagged PIK3R1, phosphoinositide-3-kinase regulatory subunit 1 (p85α). The protein is stored at −20° C. in 50 mM TRIS (pH 7.5), 150 mM NaCl, 0.5 mM EDTA, 0.02% Triton® X-100, 2 mM DTT, and 50% glycerol.
A modified PIK3CD Adapta® assay (Invitrogen, Carlsbad, Calif.) is used to measure PI3Kδ inhibition of the example compounds. The assay has two phases. In the first phase, kinase reaction components, which include the enzyme (PIK3CD), substrates (PIP2, ATP), test compound (inhibitor), and assay buffer are added to each well, and the reaction is allowed to incubate for a pre-determined period of time. After reaction, a detection solution composed of a Eu (europium)-labeled anti-ADP antibody, Alexa Fluor® 647-labeled ADP tracer, and EDTA (to stop the kinase reaction) is added to each assay well. In this second phase, ADP formed by the kinase reaction displaces the Alexa Fluor® 647-labeled ADP tracer from the antibody, resulting in a decrease in time-resolved fluorescence resonance energy transfer (TR-FRET) signal. In the presence of the inhibitor, the amount of ADP formed by the kinase reaction is reduced, and the resulting intact antibody-tracer interaction maintains a high TR-FRET signal.
The assay uses black Greiner® 384-well plates (784076). The reaction buffer contains 50 mM Hepes (pH 7.5), 3 mM MgCl2, 1 mM EGTA, 100 mM NaCl, 0.03% CHAPS; 2 mM DTT is added fresh prior to each experiment. Enzyme (4 μL, estimated 1.5 nM in buffer) is first added to the wells of the plate. Next, test compounds (2 μL) from a source plate (5% dilution plate) are introduced into the wells. The final DMSO concentration in each assay well is 1%. The dilution plate contains 5% DMSO in the bottom half of columns 23 and 24, which serve as negative (non-inhibited) controls; the top half contains a known inhibitor concentration (positive control) that gives >98% inhibition of the kinase reaction. Other wells contain test compounds serially diluted across the plate 11 times for a total of 12 data points. The kinase reactions are carried out at room temperature and are initiated by the addition of 4 μL of solution containing 2 μM ATP and 50 μM PIP2. Each reaction is stopped after 1 hour±10 minutes via addition of 10 μL stop solution, which contains a final assay concentration of 3 nM Alexa Fluor® 647-labeled ADP tracer, 2 nM Eu-anti-ADP Antibody, and 10 mM EDTA. After allowing the solutions to equilibrate for 30±10 minutes, a PHERAstar plate reader is used to excite the Eu donor (at 337 nm) and to detect emission from the Alexa Fluor® 647 at 665 nm. This emission signal is referenced or “ratioed” to the emission from Eu at 620 nm. The emission ratio (665 nm/620 nm) from each well is collected and converted to percent conversion using a standard curve for the assay conditions: % conversion=B*(C+A−emission ratio)/(emission ratio−C), where “A” and “C” are the maximum and minimum values of the emission ratio obtained from the standard curve of emission ratio vs. % conversion (ATP-ADP); “B” is the emission ratio corresponding to the % conversion at the EC50 value for the ADP Tracer—Eu anti-ADP antibody complex. The percent inhibition for a given inhibitor concentration is computed from % conversion for the reaction and for the positive and negative controls. Corresponding IC50 values are calculated by non-linear curve fitting of the compound concentrations and values of percent inhibition to the standard IC50 equation and are reported as pIC50, i.e., −log(IC50), where IC50 is molar concentration at 50% inhibition.
Background: TR-FRET usually uses a lanthanide donor and a delayed reading to cut background.
The term pIC50 denotes −log10 of the IC50, conventionally taken in molar units. As to `C[C@H](Nc1nc(N)ncc1Cl)c1nc2ccn(C)c2cc1-c1ccnn1C` [Example 1, (S)-5-Chloro-N^4-(1-(1-methyl-6-(1-methyl-1H-pyrazol-5-yl)-1H-pyrrolo[3,2-b]pyridin-5-yl)ethyl)pyrimidine-2,4-diamine], the pIC50 was 6.90. On to `C[C@H](Nc1nc(N)nc(N)c1C#N)c1nc2ccn(C)c2cc1-c1ccnn1C` [Example 2, (S)-2,4-Diamino-6-((1-(1-methyl-6-(1-methyl-1H-pyrazol-5-yl)-1H-pyrrolo[3,2-b]pyridin-5-yl)ethyl)amino)pyrimidine-5-carbonitrile], for which the pIC50 is 8.60. As for `Cc1nc(N)nc(N[C@@H](C)c2nc3ccn(C)c3cc2-c2ccnn2C)c1C#N` [Example 3, (S)-2-Amino-4-methyl-6-((1-(1-methyl-6-(1-methyl-1H-pyrazol-5-yl)-1H-pyrrolo[3,2-b]pyridin-5-yl)ethyl)amino)pyrimidine-5-carbonitrile], the pIC50 is 8.80. As to `C[C@H](Nc1nc(N)ncc1C#N)c1nc2ccn(C)c2cc1-c1ccnn1C` [Example 4, (S)-2-Amino-4-((1-(1-methyl-6-(1-methyl-1H-pyrazol-5-yl)-1H-pyrrolo[3,2-b]pyridin-5-yl)ethyl)amino)pyrimidine-5-carbonitrile], the pIC50 is 7.20.

On to `C[C@H](Nc1nc(N)ncc1Cl)c1nc2ccn(C)c2cc1N1CCOCC1` [Example 5, (S)-5-Chloro-N^4-(1-(1-methyl-6-morpholino-1H-pyrrolo[3,2-b]pyridin-5-yl)ethyl)pyrimidine-2,4-diamine], for which the pIC50 is 6.90.

As to `Cc1nc(N)c(C#N)c(NC(C)c2nc3ccn(C)c3cc2N2CCOCC2)n1` (centres unmarked) [Example 6, 4-Amino-2-methyl-6-((1-(1-methyl-6-morpholino-1H-pyrrolo[3,2-b]pyridin-5-yl)ethyl)amino)pyrimidine-5-carbonitrile], the pIC50 was 7.20. As to `C[C@H](Nc1nc(N)ncc1F)c1nc2ccn(C)c2cc1-c1ccnn1C` [Example 7, (S)-5-Fluoro-N^4-(1-(1-methyl-6-(1-methyl-1H-pyrazol-5-yl)-1H-pyrrolo[3,2-b]pyridin-5-yl)ethyl)pyrimidine-2,4-diamine], the pIC50 is 4.10. Turning to `C[C@H](Nc1nc(O)nc(N)c1C#N)c1nc2ccn(C)c2cc1N1CCOCC1` [Example 8, (S)-4-Amino-2-hydroxy-6-((1-(1-methyl-6-morpholino-1H-pyrrolo[3,2-b]pyridin-5-yl)ethyl)amino)pyrimidine-5-carbonitrile], the negative-log IC50 (pIC50) is 6.00. On to `Cc1nc(N)nc(N[C@@H](C)c2nc3ccn(C)c3cc2N2CCOCC2)c1C#N` [Example 9, (S)-2-Amino-4-methyl-6-((1-(1-methyl-6-morpholino-1H-pyrrolo[3,2-b]pyridin-5-yl)ethyl)amino)pyrimidine-5-carbonitrile], for which the pIC50 is 9.10. On to `C[C@H](Nc1nc(N)nc(N)c1C#N)c1nc2ccn(C)c2cc1N1CCOCC1` [Example 10, (S)-2,4-Diamino-6-((1-(1-methyl-6-morpholino-1H-pyrrolo[3,2-b]pyridin-5-yl)ethyl)amino)pyrimidine-5-carbonitrile], for which the pIC50 is more than 8.60. Take `C[C@H](Nc1nc(O)nc(N)c1C#N)c1nc2ccn(C)c2cc1-c1ccnn1C` [Example 11, (S)-4-Amino-2-hydroxy-6-((1-(1-methyl-6-(1-methyl-1H-pyrazol-5-yl)-1H-pyrrolo[3,2-b]pyridin-5-yl)ethyl)amino)pyrimidine-5-carbonitrile]: the pIC50 was 5.90.

In the case of `C[C@H](Nc1nc(N)nc(N)c1C#N)c1nc2ccn(C)c2cc1-c1ccccn1` [Example 12, (S)-2,4-Diamino-6-((1-(1-methyl-6-(pyridin-2-yl)-1H-pyrrolo[3,2-b]pyridin-5-yl)ethyl)amino)pyrimidine-5-carbonitrile], the pIC50 is 8.80. Consider `C[C@H](Nc1nc(N)nc(N)c1C#N)c1nc2ccn(C)c2cc1-c1ccn[nH]1` [Example 13, (S)-2,4-Diamino-6-((1-(1-methyl-6-(1H-pyrazol-5-yl)-1H-pyrrolo[3,2-b]pyridin-5-yl)ethyl)amino)pyrimidine-5-carbonitrile], for which the pIC50 was 8.70. Regarding `Cc1n[nH]c(C)c1-c1cc2c(ccn2C)nc1[C@H](C)Nc1nc(N)nc(N)c1C#N` [Example 14, 2,4-Diamino-6-(((1S)-1-(6-(3,5-dimethyl-1H-pyrazol-4-yl)-1-methyl-1H-pyrrolo[3,2-b]pyridin-5-yl)ethyl)amino)pyrimidine-5-carbonitrile], the pIC50 was 8.10. With `C[C@H](Nc1nc(N)nc(N)c1C#N)c1nc2ccn(C)c2cc1-c1ccnc(O)c1` [Example 15, (S)-2,4-Diamino-6-((1-(6-(2-hydroxypyridin-4-yl)-1-methyl-1H-pyrrolo[3,2-b]pyridin-5-yl)ethyl)amino)pyrimidine-5-carbonitrile], the pIC50 was more than 9.00. For `C[C@H](Nc1nc(N)nc2[nH]cnc12)c1nc2ccn(C)c2cc1-c1ccnn1C` [Example 16, (S)—N^6-(1-(1-Methyl-6-(1-methyl-1H-pyrazol-5-yl)-1H-pyrrolo[3,2-b]pyridin-5-yl)ethyl)-9H-purine-2,6-diamine], the pIC50 was 8.10. `C[C@H](Nc1nc(N)nc(N)c1C#N)c1nc2ccn(C)c2cc1-c1cscn1` [Example 17, (S)-2,4-Diamino-6-((1-(1-methyl-6-(thiazol-4-yl)-1H-pyrrolo[3,2-b]pyridin-5-yl)ethyl)amino)pyrimidine-5-carbonitrile]: the pIC50 was more than 9.00. The same measure for `C[C@H](Nc1nc(N)nc2[nH]ncc12)c1nc2ccn(C)c2cc1-c1ccnn1C` [Example 18, (S)—N^4-(1-(1-Methyl-6-(1-methyl-1H-pyrazol-5-yl)-1H-pyrrolo[3,2-b]pyridin-5-yl)ethyl)-1H-pyrazolo[3,4-d]pyrimidine-4,6-diamine]: 6.30. The same measure for `Cc1n[nH]cc1-c1cc2c(ccn2C)nc1[C@H](C)Nc1nc(N)nc(C)c1C#N` [Example 19, (S)-2-Amino-4-methyl-6-((1-(1-methyl-6-(3-methyl-1H-pyrazol-4-yl)-1H-pyrrolo[3,2-b]pyridin-5-yl)ethyl)amino)pyrimidine-5-carbonitrile]: 8.30; for `C[C@H](Nc1nc(N)nc(N)c1C#N)c1nc2ccn(C)c2cc1N1CCC(C)(O)CC1` [Example 21, (S)-2,4-Diamino-6-((1-(6-(4-hydroxy-4-methylpiperidin-1-yl)-1-methyl-1H-pyrrolo[3,2-b]pyridin-5-yl)ethyl)amino)pyrimidine-5-carbonitrile]: 8.30; for `C[C@@H](Nc1nc(N)nc(N)c1C#N)c1nc2ccn(C)c2cc1N1CCC(C)(O)CC1` [Example 22, (R)-2,4-Diamino-6-((1-(6-(4-hydroxy-4-methylpiperidin-1-yl)-1-methyl-1H-pyrrolo[3,2-b]pyridin-5-yl)ethyl)amino)pyrimidine-5-carbonitrile]: 5.70. As for `Cc1nc(N)nc(N[C@@H](C)c2nc3ccn(C)c3cc2-c2ccnc(O)c2)c1C#N` [Example 23, (S)-2-Amino-4-((1-(6-(2-hydroxypyridin-4-yl)-1-methyl-1H-pyrrolo[3,2-b]pyridin-5-yl)ethyl)amino)-6-methylpyrimidine-5-carbonitrile], the pIC50 is more than 9.00. Take `Cc1nc(N)nc(N[C@@H](C)c2nc3ccn(C)c3cc2-c2ccccn2)c1C#N` [Example 24, (S)-2-Amino-4-methyl-6-((1-(1-methyl-6-(pyridin-2-yl)-1H-pyrrolo[3,2-b]pyridin-5-yl)ethyl)amino)pyrimidine-5-carbonitrile]: the pIC50 is more than 9.00.
